# Read-outs that look alike come from different tables or passages of the source.
# How the values were obtained:
# [1] = Metabolite profile of SMZ in chickens (LC-v.ARC/MS-IT-TOF); assay type: in vivo; settings: for Share of the total radioactivity in feces: 0.5–1 d after administration; for Percentage of the individual metabolite compared with total concentration of SMZ-related compounds: within 12 h after dosing
# Description: (§1) (0.1 Ci/g). […] Urine and feces samples were stored at −80 °C.
# (§2) The weight of each aliquot was 0.1% of the total fraction weight (0.25% for urine). Each sample was centrifuged at 4 °C for 5 min at 4000 rpm/min. The supernatant was collected and 2 mol/L methanol-mixed acid (methanol: 0.5% perchloric acid, 8:1, v:v) was added. Then, the mixture was centrifugated at 10,000 r/min for 10 min, the supernatant was collected and dried with nitrogen at 45 °C. […] The mixture was subjected to Liquid Chromatography tandem on-line isotope detector/Time of Flight Mass Spectrometry (LC-ν.ARC/MS-IT-TOF) system analysis.
# (§3) The mixture was prepared for LC-ν. ARC/MS-IT-TOF system analysis.
# (§4) X is the percentage of the individual radioactive substances within the total radioactive residues. AUCM is the area under the curve of the individual radioactive substances in the specific samples. AUCT is the area under the curve of the total radioactive residues in the specific samples.
# [2] = Tissue distribution and residue depletion in chickens; settings: for Concentration of the metabolites in kidney: oral gavage 25 mg/kg twice a day for 7 d, 3 d
# Description: In addition, the animals in the blank group (pigs and chickens) and the animals in the treatment group were given physiological saline and 0.5% carboxymethyl cellulose aqueous solution in exactly the same dose and in exactly the same way. […] The same as above, at each sampling time point, a non-administered animal was killed and a sample was taken to obtain a blank sample. The medication groups samples and blank samples were washed and their weight was recorded. Afterwards, all samples were homogenized and divided into two parts. One part was used to detect the total radioactivity, and the other part was used for SMZ and metabolite analysis.
# (§5) The total radioactivity in the samples were measured by Packard Tricarb 2900 liquid scintillation analyzer (LSC). The pretreated 200 μL liquid sample (urine, blood, and bile) was taken and 10 mL of Ultima Gold scintillation fluid was added for total radioactivity detection by LSC. Then, 200 mg of solid samples (feces and tissues) were accurately weighed, and 2 mL of digestion solution were added and mixed well, then the samples were placed in a 55 °C water bath for 6 h, and cooled to room temperature for later use. Then, 0.1 mol/L disodium edetate (EDTA-2Na) and 30% H2O2 of 200 μL were added and mixed evenly. At room temperature, 10 mL Ultima Gold scintillation fluid was added, and radioactivity determination was performed after standing [21].
# The feces and tissues (2 g) were extracted with 10 mL methanol and water (4:1, v:v). The mixture was vortexed and sonicated for 5 min and 10 min, respectively, and finally the samples were centrifugated at 8000 rpm/min for 10 min. The supernatants were transferred into a new centrifuge tube and the residues were further extracted with 10 mL methanol and water (4:1, v:v). The supernatants were combined and evaporated to dryness under a nitrogen stream at 45 °C. The residues were dissolved with 0.5 mL of mobile phase and vortexed mixed for 30 s. Then, 1 mL n-hexane was added to remove the lipid, the mixture was vortexed evenly mixed, centrifugated at 10,000 rpm/min for 10 min and the n-hexane layer was discarded. […] The SMZ and its metabolites in the prepared samples were determined by a ν. ARC radiation detector and a hybrid IT/TOF mass spectrometer connected to the HPLC system (Shimadzu Corp., Kyoto, Japan). The HPLC system was equipped with a solvent delivery pump (LC20AD), autosampler (SIL20AC), DGU20A3 degasser, photodiode array detector (SPDM20A), communication base module (CBM20A), and a column oven (CTO20AC). Separation was performed on a X Bridge C18 column (150 × 2.1 mm; 3.5 μm) using a gradient elution consisting of mobile phase A (0.1% formic acid in water) and mobile phase B (acetonitrile). […] Photo-diode array (PDA) detection was performed from 200 to 400 nm. The sample chamber in the autosampler was maintained at 4 °C, whereas the column was set at 25 °C. The total effluent from the detector was transferred directly to the hybrid IT-TOF mass spectrometer without splitting. Metabolites were isolated and identified using a Shimadzu high-performance liquid chromatography-mass spectrometry-ion trap-time-of-flight (LC-MS-IT-TOF) hybrid mass spectrometer equipped with an electrospray ionization (ESI) source and operated in the positive mode. The eluate from the chromatographic separation was divided into two portions.
# [3] = pigs, single i.m. 25 mg/kg b.w.
# Description: (§6) Six Wistar rats (three females and three males), six chickens and four pigs were housed in clean metabolic cages. […] (0.1 Ci/g). The broiler chickens were given the same dose by oral gavage. According to the recommended guidelines, the urine and feces samples of these animals were collected at different time intervals. […] At the end of the experiment, all animals were anesthetized and sacrificed in accordance with euthanasia guidelines (AVMA, 2001). Urine and feces samples were stored at −80 °C.
# as §5
# [4] = chickens, single oral gavage 25 mg/kg b.w.
# Description: as §6, §5
# [5] = Tissue distribution and residue depletion in rats; settings: single i.m. dose
# Description: (§7) Another 6 rats were administered physiological saline at the same dose and in exactly the same way as the other animals. The same as above, at each sampling time point, a non-administered animal was killed and a sample was taken to obtain a blank sample. The medication groups samples and blank samples were washed and their weight was recorded. Afterwards, all samples were homogenized and divided into two parts. One part was used to detect the total radioactivity, and the other part was used for SMZ and metabolite analysis.
# The total radioactivity in the samples were measured by Packard Tricarb 2900 liquid scintillation analyzer (LSC). The pretreated 200 μL liquid sample (urine, blood, and bile) was taken and 10 mL of Ultima Gold scintillation fluid was added for total radioactivity detection by LSC. […] At room temperature, 10 mL Ultima Gold scintillation fluid was added, and radioactivity determination was performed after standing [21].
# The feces and tissues (2 g) were extracted with 10 mL methanol and water (4:1, v:v). […] The SMZ and its metabolites in the prepared samples were determined by a ν. […] The portion for metabolic quantification was applied to a ν.ARC 2.0, and the rest was analyzed and identified by ion trap time-of-flight tandem mass spectrometry (IT-TOF-MS/MS). […]
# [6] = Tissue distribution and residue depletion in pigs
# Description: as §7, §5
# The feces and tissues (2 g) were extracted with 10 mL methanol and water (4:1, v:v). The mixture was vortexed and sonicated for 5 min and 10 min, respectively, and finally the samples were centrifugated at 8000 rpm/min for 10 min. The supernatants were transferred into a new centrifuge tube and the residues were further extracted with 10 mL methanol and water (4:1, v:v). The supernatants were combined and evaporated to dryness under a nitrogen stream at 45 °C. The residues were dissolved with 0.5 mL of mobile phase and vortexed mixed for 30 s. Then, 1 mL n-hexane was added to remove the lipid, the mixture was vortexed evenly mixed, centrifugated at 10,000 rpm/min for 10 min and the n-hexane layer was discarded. […] The SMZ and its metabolites in the prepared samples were determined by a ν. ARC radiation detector and a hybrid IT/TOF mass spectrometer connected to the HPLC system (Shimadzu Corp., Kyoto, Japan). The HPLC system was equipped with a solvent delivery pump (LC20AD), autosampler (SIL20AC), DGU20A3 degasser, photodiode array detector (SPDM20A), communication base module (CBM20A), and a column oven (CTO20AC). Separation was performed on a X Bridge C18 column (150 × 2.1 mm; 3.5 μm) using a gradient elution consisting of mobile phase A (0.1% formic acid in water) and mobile phase B (acetonitrile). […] Photo-diode array (PDA) detection was performed from 200 to 400 nm. The sample chamber in the autosampler was maintained at 4 °C, whereas the column was set at 25 °C. The total effluent from the detector was transferred directly to the hybrid IT-TOF mass spectrometer without splitting. Metabolites were isolated and identified using a Shimadzu high-performance liquid chromatography-mass spectrometry-ion trap-time-of-flight (LC-MS-IT-TOF) hybrid mass spectrometer equipped with an electrospray ionization (ESI) source and operated in the positive mode. The eluate from the chromatographic separation was divided into two portions. The portion for metabolic quantification was applied to a ν.ARC 2.0, and the rest was analyzed and identified by ion trap time-of-flight tandem mass spectrometry (IT-TOF-MS/MS). Radiochemical detection was performed using the ν.ARC 2.0 Radio-LC system Detector RS232 equipped with a 500 μL detector cell (AIM Research Co., Hockessin, DE, USA).
# [7] = cited from earlier work
# [8] = tested on: TA100 strain of Salmonella typhimurium; settings: cited from earlier work
# [9] = Metabolite profile of SMZ in rats (LC-v.ARC/MS-IT-TOF); assay type: in vivo; settings: rat urine; after i.m. injection
# Description: as §1, §2, §3, §4
# [10] = Metabolite profile of SMZ in pigs (LC-v.ARC/MS-IT-TOF); assay type: in vivo; settings: for Detection in feces: pig feces, 7 d after administration
# Description: as §1
# Each sample was centrifuged at 4 °C for 5 min at 4000 rpm/min. The supernatant was collected and 2 mol/L methanol-mixed acid (methanol: 0.5% perchloric acid, 8:1, v:v) was added. Then, the mixture was centrifugated at 10,000 r/min for 10 min, the supernatant was collected and dried with nitrogen at 45 °C. […] The mixture was subjected to Liquid Chromatography tandem on-line isotope detector/Time of Flight Mass Spectrometry (LC-ν.ARC/MS-IT-TOF) system analysis.
# as §3, §4
# [11] = female rats, single i.m. 25 mg/kg b.w., 0–0.5 d
# [12] = female rats, single i.m. 25 mg/kg b.w., 0.5–1 d
# [13] = female rats, single i.m. 25 mg/kg b.w., 1–3 d
# [14] = female rats, single i.m. 25 mg/kg b.w., 3–7 d
# [15] = female rats, single i.m. 25 mg/kg b.w., 7–14 d
# [16] = female rats, single i.m. 25 mg/kg b.w., within 14 d
# [17] = male rats, single i.m. 25 mg/kg b.w., 0–0.5 d
# [18] = male rats, single i.m. 25 mg/kg b.w., 0.5–1 d
# [19] = male rats, single i.m. 25 mg/kg b.w., 1–3 d
# [20] = male rats, single i.m. 25 mg/kg b.w., 3–7 d
# [21] = male rats, single i.m. 25 mg/kg b.w., 7–14 d
# [22] = male rats, single i.m. 25 mg/kg b.w., within 14 d
# [23] = pig, within 12 h after administration
# [24] = chicken, 6 h after administration
smiles,measurement,setting,value
"Cc1cc(NS(=O)(=O)c2ccc(NS(=O)(=O)O)cc2)no1 [Compound S4, N4-sulfatesulfamethoxazole]",Share of the total radioactivity in feces,[1]; chicken feces,2.06%
same,Concentration of the metabolites in kidney,[2]; chicken,not detected
"[3H]c1cc(N)ccc1S(=O)(=O)Nc1cc(C)on1 [[^3H]-SMZ, 2-[^3H]-sulfamethoxazole]",Recovery of total radioactivity in feces,[3]; 0–0.5 d,5.56 ± 0.42%
same,Recovery of total radioactivity in urine,[3]; 0–0.5 d,60.02 ± 16.54%
same,Total radioactive recovery rate (urine and feces),[3]; 0–0.5 d,exceeds 65%
same,Recovery of total radioactivity in feces,[3]; 0–14 d,14.72 ± 1.31%
same,Recovery of total radioactivity in feces,[3]; 0.5–1 d,2.69 ± 3.12%
same,Recovery of total radioactivity in urine,[3]; 0.5–1 d,15.3 ± 8.73%
same,Recovery of total radioactivity in feces,[3]; 1–3 d,5.19 ± 3.36%
same,Recovery of total radioactivity in urine,[3]; 1–3 d,4.52 ± 2.22%
same,Recovery of total radioactivity in feces,[3]; 3–7 d,0.82 ± 0.34%
same,Recovery of total radioactivity in urine,[3]; 3–7 d,0.59 ± 0.17%
same,Recovery of total radioactivity in feces,[3]; 7–14 d,0.45 ± 0.3%
same,Recovery of total radioactivity in urine,[3]; 7–14 d,0.16 ± 0.04%
same,Recovery of total radioactivity in excreta,"[4]; 0–0.5 d, 25 mg/kg",60.65 ± 13.08%
same,Recovery of total radioactivity in excreta,[4]; 0–14 d,93.39 ± 2.28%
same,Recovery of total radioactivity in excreta,[4]; 0.5–1 d,15.08 ± 6.87%
same,Recovery of total radioactivity in excreta,[4]; 1–3 d,11.91 ± 9.67%
same,Recovery of total radioactivity in excreta,[4]; 3–7 d,5.48 ± 1.89%
same,Recovery of total radioactivity in excreta,[4]; 7–14 d,0.26 ± 0.13%
same,Recovery of total radioactivity in feces,[11],14.31 ± 1.73%
same,Recovery of total radioactivity in urine,[11],45.38 ± 6.09%
same,Recovery of total radioactivity in feces,"female rats, single i.m. 25 mg/kg b.w., 0–14 d",19.58 ± 2.09%
same,Recovery of total radioactivity in feces,[12],4.45 ± 1.87%
same,Recovery of total radioactivity in urine,[12],19.41 ± 2.15%
same,Recovery of total radioactivity in feces,[13],1.02 ± 0.72%
same,Recovery of total radioactivity in urine,[13],10.09 ± 3.14%
same,Recovery of total radioactivity in feces,[14],0.42 ± 0.28%
same,Recovery of total radioactivity in urine,[14],3.97 ± 1.24%
same,Recovery of total radioactivity in feces,[15],0.05 ± 0.03%
same,Recovery of total radioactivity in urine,[15],0.38 ± 0.17%
same,Total recovery of radioactivity (urine + feces),[16],97.3 ± 1.16%
same,Recovery of total radioactivity in feces,[17],17.3 ± 1.16%
same,Recovery of total radioactivity in urine,[17],45.33 ± 4.79%
same,Recovery of total radioactivity in feces,"male rats, single i.m. 25 mg/kg b.w., 0–14 d",23.24 ± 1.79%
same,Recovery of total radioactivity in feces,[18],5.3 ± 1.43%
same,Recovery of total radioactivity in urine,[18],19.31 ± 7.15%
same,Recovery of total radioactivity in feces,[19],0.35 ± 0.14%
same,Recovery of total radioactivity in urine,[19],7.49 ± 2.04%
same,Recovery of total radioactivity in feces,[20],0.25 ± 0.14%
same,Recovery of total radioactivity in urine,[20],2.7 ± 1.89%
same,Recovery of total radioactivity in feces,[21],0.05 ± 0.03%
same,Recovery of total radioactivity in urine,[21],0.49 ± 0.3%
same,Total recovery of radioactivity (urine + feces),[22],98.56 ± 2.82%
same,Total radioactive recovery rate (urine and feces),"rats, single i.m. 25 mg/kg b.w., 0–0.5 d",> 59%
same,Dose excreted (total radioactivity),"rats, single i.m., within 14 days",more than 93%
same,Time point of the highest levels of radioactivity in all collected substrates,[5],1 h
same,Time point of the highest levels of radioactivity in all collected substrates,"[6]; pigs, i.m. 7 consecutive days",12 h
same,Time point of the highest levels of radioactivity in all collected substrates,"[2]; chickens, gavage 7 consecutive days",6 h
CC(=O)ONc1ccc(S(=O)(=O)Nc2cc(C)on2)cc1 [N-acetoxy-SMZ],In vitro cytotoxicity relative to S3,[7],more toxic than S3
same,Mutagenicity in the Ames test,[8],weak mutations
"Cc1cc(NS(=O)(=O)c2ccc(NC3OC(C(=O)O)C(O)C(O)C3O)cc2)no1 (stereo not drawn) [Compound S5, N4-glucuronidsulfamethoxazole]",Detection in urine by LC-MS-IT-TOF,[9],trace amounts
same,Detection in urine by LC/MS-IT-TOF,"[10]; pig urine, 0–0.5 d",trace amounts
same,Detection in feces by LC-MS-IT-TOF,"[1]; chicken feces, 12 h",trace amount
"Cc1cc(NS(=O)(=O)c2ccc(NO)cc2)no1 [Compound S3, N4-hydroxyamino sulfamethoxazole]",Percentage of the individual metabolite compared with total concentration of SMZ-related compounds,[1]; chicken Extra (feces/excreta),4.4%
same,Percentage of the individual metabolite compared with total concentration of SMZ-related compounds,[1]; chicken bile,not detected
same,Share of the total radioactivity in feces,[1]; chicken feces,no longer detected
same,Percentage of the individual metabolite compared with total concentration of SMZ-related compounds,[1]; chicken plasma (blood),0.9%
same,Reactivity / direct cytotoxicity,[7],neither highly reactive nor directly cytotoxic
same,Concentration of the metabolites in kidney,[2]; chicken,not detected
"Cc1cc(NS(=O)(=O)c2ccc(N)cc2)no1 [Compound S0, sulfamethoxazole]",Detection in feces,[10],not detected
same,Recovery of total radioactivity in feces,[3]; 0–14 d,14.7%
same,Total recovery of radioactivity (urine + feces),[16],97%
same,Total recovery of radioactivity (urine + feces),[22],98%
same,Excreted through feces,"rats (sexes together), single i.m. 25 mg/kg b.w., within 14 d",21.4%
same,Share of the total residues in fat,[6]; [23],41.9%
same,Share of the total residues in kidney,[6]; [23],33.5%
same,Share of the total residues in liver,[6]; [23],34.4%
same,Share of the total residues in muscle,[6]; [23],55.9%
"CC(=O)Nc1ccc(S(=O)(=O)Nc2cc(C)on2)cc1 [Compound S1, N4-acetyl-sulfamethoxazole]",Detection in feces,[10],detected
same,Share of the total residues in fat,[6]; [23],58.1%
same,Share of the total residues in kidney,[6]; [23],66.5%
same,Share of the total residues in muscle,[6]; [23],44.1%
same,Share of the residual amount in fat,[2]; [24],70.0%
same,Share of the residual amount in kidney,[2]; [24],1.0%
same,Share of the residual amount in liver,[2]; [24],71.7%
same,Share of the residual amount in muscle,[2]; [24],42.1%
"Nc1ccc(S(=O)(=O)Nc2cc(CO)on2)cc1 [Compound S2, 5-hydroxysulfamethoxazole]",Percentage of the individual metabolite compared with total concentration of SMZ-related compounds,[1]; chicken Extra (feces/excreta),9.6%
same,Percentage of the individual metabolite compared with total concentration of SMZ-related compounds,[1]; chicken bile,2.5%
same,Percentage of the individual metabolite compared with total concentration of SMZ-related compounds,[1]; chicken plasma (blood),1.2%
same,Concentration of the metabolites in kidney,[2]; chicken,not detected
